From patent US9987276B2 (Celgene CAR LLC, priority 2008, dated 2018)
Entries after “also recorded” stand apart in the source; their conditions may differ.

Experiments:
Erbb4 kinase domain = Erbb4 kinase domain (Homo sapiens (Human), UniProt Q15303); experiment: Mass spectrometry for ERBB4; assay type: binding; conditions: 60 minutes at 10-fold excess of compound
Method: Erbb4 kinase domain (Upstate) was incubated with compound for 60 minutes at 10-fold excess of compound I-4 and I-11 to protein. 1 μl aliquots of the samples (total volume of 4.24 ul) were diluted with 10 μl of 0.1% TFA prior to micro C4 ZipTipping directly onto the MALDI target using Sinapinic acid as the desorption matrix (10 mg/ml in 0.1% TFA:Acetonitrile 50:50). For intact protein mass measurement the instrument was set in Linear mode using a pulsed extraction setting of 16,952 for the myoglobin standard used to calibrate the instrument (Shimadzu Axima TOF^2).
Intact ErbB4 protein occurs at MH+ of 35850 with corresponding sinapinic (matrix) adducts occurring about 200 Da higher. A stochiometric incorporation of the test compound (I-4 and I-11) (Mw of 410 Da) produced a new mass peak which is approximately 410 Da higher (MH+ of 36260).

BTK [1] = molecular target: T1, BTK (Homo sapiens (Human), UniProt Q06187); experiment: Mass spectrometry for BTK (intact protein); assay type: binding; conditions: 1 hr, 10× fold excess of compound
Method: Intact BTK was incubated for 1 hr at a 10× fold excess of I-7 to protein. Aliquots (2 μl) of the samples were diluted with 10 μl of 0.1% TFA prior to micro C4 ZipTipping directly onto the MALDI target using Sinapinic acid as the desorption matrix (10 mg/ml in 0.1% TFA:Acetonitrile 20:80).

BTK [2] = molecular target: T1, BTK; experiment: BTK occupancy from in vitro samples by ELISA (Ramos cells); assay type: cell-based; conditions: ELISA with probe I-215
Method: In order to determine the amount of free BTK in cell or tissue lysates, an ELISA protocol was employed that utilizes a biotinylated probe compound that binds only to free, unoccupied BTK. The conjugated biotin is captured on a streptavidin-coated ELISA plate and detected with a mouse anti-BTK antibody (Becton Dickinson, Franklin Lakes, N.J., USA) and a secondary goat anti-mouse HRP antibody (Zymed, South San Francisco, Calif., USA).
All samples were prepared with equal concentrations of Biorad lysis buffer (Hercules, Calif., USA), 0.5% bovine serum albumin in PBS with 0.05% Tween-20 to give a final concentration of 1 μM I-215. Samples were incubated in a mixing plate for 1 hr at room temperature while shaking to allow probe compound I-215 to bind to free BTK. After incubation with I-215, samples were added to a washed, streptavidin-coated ELISA plate (Pierce, Rockford, Ill., USA) and incubated for 1 hr at room temperature while shaking. The plate was then washed with PBS containing 0.05% Tween-20 using an automatic plate washer. Anti-BTK antibody was prepared at 1:1000 dilution in 0.5% BSA in PBS (0.05% Tween-20) and added to the ELISA plate. The plate was incubated for 1 hr at room temperature while shaking. The plate was washed as described above and the secondary HRP antibody was prepared at 1:5000 dilution in 0.5% BSA in PBS (0.05% Tween-20). The plate was incubated and washed as described above. TMB was added to the plate, and OD650 was monitored until reaching 1 OD unit. The reaction was then stopped with addition of H2SO4. The plate was analyzed using Gen 5 software, and a 4 Parameter Logistic curve was employed to quantitate samples. Recombinant BTK (Invitrogen, Carlsbad, Calif., USA) was used for the standard curve.
A concentration designated as “A” is greater than 1 nM; a concentration designated as “B” is greater than 10 nM; and a concentration designated as “C” is greater than 50 nM.

[3] = Collagen antibody induced arthritis model; assay type: in vivo; conditions: Dose 30 mg/kg
Method: On day 0 baseline footpad measurements were made and animals were distributed to the experimental groups in such a way as to generate groups with no significant differences between the groups. Each animal was then inoculated intravenously with 2 mg Arthritomab monoclonal antibody cocktail. Treatment with test agents began at this time. On day 6, each animal was injected intraperitoneally with 50 μg LPS in 200 μl of sterile PBS. Footpad measurements and clinical scoring were conducted on days 6, 7, 8, 9, 10, 11, 12, 14, 18, and 21.

BTK [4] = molecular target: T1, BTK; experiment: BTK occupancy in Ramos cells with I-7 and probe I-215 using streptavidin beads; assay type: cell-based; conditions: 1 hour, higher concentrations of I-7 (0.1, 0.05 μM)
Method: Ramos cells were incubated with 0.1, 0.05, 0.01, or 0.001 μM I-7 in serum free media for 1 hour at 37° C. The cells were pelleted by centrifugation and lysed in Cell Extraction buffer (Invitrogen) for 10 minutes on ice, centrifuged (10 minutes at 14,000 rpm) and the supernatant was collected. Cell lysates were incubated with 1 μM I-215 for 1 hour at room temperature, then incubated with streptavidin-coupled agarose beads (ThermoFisher) overnight at 4° C. The beads were washed three times with lysis buffer and the bound proteins were boiled off the beads at 95° C. for 5 minutes in 4×LDS Sample Buffer. The amount of BTK associated with the probe I-215 was assessed by BTK western blot. All values were normalized to the DMSO-treated sample which is set to 100%.

BTK [5] = molecular target: T1, BTK; experiment: Washout experiment with I-7 and probe compound I-215 in Ramos cells; assay type: cell-based; conditions: 0.1 μM for 1 hour

T1 sequence (Q06187 whole entry): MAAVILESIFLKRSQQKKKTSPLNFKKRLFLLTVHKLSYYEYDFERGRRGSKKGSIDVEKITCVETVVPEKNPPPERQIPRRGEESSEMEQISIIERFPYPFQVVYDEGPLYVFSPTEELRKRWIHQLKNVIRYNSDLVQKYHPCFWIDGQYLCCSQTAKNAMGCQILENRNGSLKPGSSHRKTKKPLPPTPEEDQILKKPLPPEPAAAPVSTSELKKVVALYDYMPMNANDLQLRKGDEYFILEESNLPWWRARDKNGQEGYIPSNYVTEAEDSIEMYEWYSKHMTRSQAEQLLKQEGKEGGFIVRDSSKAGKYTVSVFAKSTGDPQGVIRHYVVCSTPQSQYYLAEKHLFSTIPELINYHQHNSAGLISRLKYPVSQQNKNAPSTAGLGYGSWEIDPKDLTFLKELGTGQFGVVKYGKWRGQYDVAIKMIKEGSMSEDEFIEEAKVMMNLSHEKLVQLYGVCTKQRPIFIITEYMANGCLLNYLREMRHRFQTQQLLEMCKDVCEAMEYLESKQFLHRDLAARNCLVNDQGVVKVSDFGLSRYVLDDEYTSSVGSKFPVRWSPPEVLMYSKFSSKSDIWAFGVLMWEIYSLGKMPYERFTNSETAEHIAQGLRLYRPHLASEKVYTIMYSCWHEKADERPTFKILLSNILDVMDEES
Chain of Erbb4 kinase domain (Q15303 718-985): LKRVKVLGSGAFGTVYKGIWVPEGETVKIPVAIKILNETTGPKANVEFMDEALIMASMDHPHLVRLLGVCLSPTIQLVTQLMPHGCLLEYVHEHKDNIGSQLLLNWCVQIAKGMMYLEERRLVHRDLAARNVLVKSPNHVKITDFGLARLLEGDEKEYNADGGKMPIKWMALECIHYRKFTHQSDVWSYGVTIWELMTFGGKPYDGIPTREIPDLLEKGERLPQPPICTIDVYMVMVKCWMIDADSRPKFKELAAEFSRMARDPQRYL

Structure (SMILES) | covalent modification of ErbB4 (mass spectrometry) (Erbb4 kinase domain) | covalent modification of BTK (mass spectrometry) (BTK [1]) | >50% occupancy (concentration at which >50% of BTK is occupied) (BTK [2]) | >90% occupancy (concentration at which >90% of BTK is occupied) (BTK [2]) | % inhibition foot pad swelling [3] [%] | BTK occupancy (BTK available to probe I-215) (BTK [4]) | time BTK protein remains occupied after compound removal (BTK [5])
Cc1cccc(Nc2nc(Nc3cccc(NC(=O)/C=C/CN(C)C)c3)ncc2F)c1 [Compound I-4, (E)-4-(dimethylamino)-N-(3-(5-fluoro-4-(m-tolylamino)pyrimidin-2-ylamino)phenyl)but-2-enamide] | covalent modification | – | – | – | – | – | –
C=CC(=O)Nc1cccc(Nc2nc(Nc3ccccc3)ncc2C)c1 [Compound I-7, N-(3-(5-methyl-2-(phenylamino)pyrimidin-4-ylamino)phenyl) acrylamide] | – | complete modification; also recorded: covalent modification | A (greater than 1 nM) | B (greater than 10 nM) | 83 | fully occupied | over 8 hours
